Measured values: patent US20230312550A1, “N-(2-(4-CYANOTHIAZOLIDIN-3-YL)-2-OXOETHYL)-QUINOLINE-4-CARBOXAMIDES” (AstraZeneca AB, priority 2020, published 2023)
Converted amounts (≈) assume the structure as drawn.

Columns and labels:
[1] = target: FAP (Homo sapiens (Human), UniProt Q12884); experiment: hFAP inhibition assay; format: biochemical; conditions: hFAP […], Ala-Pro-AMC 20 μM; n = 1 or geometric mean n = 2-3
Method: 384 low volume black plates (Greiner #784076) were used. 4 μL, 0.48 nM enzyme solution (100 mM Tris HCl, 100 mM NaCl, 0.05% Chaps, pH 7.4) was added to 40 nL compounds (in DMSO) at 10 CR, 3 fold dilution series from 50 μM FAC. Plates were incubated for 15 min at rt in dark. 4 μL, 40 μM substrate solution (100 mM Tris HCl, 100 mM NaCl, 0.05% Chaps, pH 7.4) was added to each well. Plates were centrifuged at 1000 rpm and incubated for 30 min at rt in dark. The plates were read on a PHERAstar® reader with excitation 340 nm and emission 460 nm. Data were analyzed in Genedata Screener®. IC50 values were determined by plotting % inhibition versus log compound concentration and using a one site dose response model.

[2] = target: human Fibroblast activation protein alpha (hFAP) (Homo sapiens (Human), UniProt Q12884); experiment: hFAP inhibition assay (tight binders); format: biochemical; conditions: Ala-Pro-AMC 20 μM, n = 1 or geometric mean n = 2-6; note: hFAP 2.4 pM
Method: The plates were read on a PHERAstar® reader with excitation 340 nm and emission 460 nm. Data were analyzed in Genedata Screener®. IC50 values were determined by plotting % inhibition versus log compound concentration and using a one site dose response model.

[3] = target: hFAP (M39-A757) (Homo sapiens (Human), UniProt Q12884); experiment: hFAP binding assay (surface plasmon resonance); conditions: SPR, 20° C.; for hFAP Binding assay k(off) / hFAP Binding assay k(on): single cycle kinetics; for Kd: n = 1 or geometric mean n = 2-4
[4] = target: Prolyl endopeptidase, Prolyl Oligopeptidase (hPREP) (Homo sapiens (Human), UniProt P48147); experiment: hPrep inhibition assay; format: biochemical; conditions: hPREP 0.6 nM, Z-Gly-Pro-amino-methylcoumarin 50 μM; read-out: PREP IC50
How it was run: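 Fluorogenic read-out (340 nm excitation, 460 nm emission) after 20 min at rt, using 50 μM final Z-Gly-Pro-aminomethylcoumarin and 0.6 nM final enzyme, following 15 min compound preincubation. Buffer pH 7.5 with glutathione and Triton X-100. IC50 via one-site model on % inhibition vs log concentration.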

[5] = Kinetic solubility; conditions: kinetic from dmso stock
Method: Kinetic solubility was measured as described in Comput Aided Mol Des 2015, 29, 795.

[6] = Metabolic stability in rat hepatocytes (rHep); conditions: n = 1 or geometric mean of n = 2-3
[7] = Metabolic stability in human liver microsomes (HLM); conditions: human
Method: Metabolic stability in HLM was measured as described in J Comput Aided Mol Des 2015, 29, 795.

[8] = Solubility, kinetic solubility, n = 1 or average of n = 2-3
[9] = HLM CLint, n = 1 or average of n = 2-3

Sequence of hFAP (M39-A757) (Q12884 39-757): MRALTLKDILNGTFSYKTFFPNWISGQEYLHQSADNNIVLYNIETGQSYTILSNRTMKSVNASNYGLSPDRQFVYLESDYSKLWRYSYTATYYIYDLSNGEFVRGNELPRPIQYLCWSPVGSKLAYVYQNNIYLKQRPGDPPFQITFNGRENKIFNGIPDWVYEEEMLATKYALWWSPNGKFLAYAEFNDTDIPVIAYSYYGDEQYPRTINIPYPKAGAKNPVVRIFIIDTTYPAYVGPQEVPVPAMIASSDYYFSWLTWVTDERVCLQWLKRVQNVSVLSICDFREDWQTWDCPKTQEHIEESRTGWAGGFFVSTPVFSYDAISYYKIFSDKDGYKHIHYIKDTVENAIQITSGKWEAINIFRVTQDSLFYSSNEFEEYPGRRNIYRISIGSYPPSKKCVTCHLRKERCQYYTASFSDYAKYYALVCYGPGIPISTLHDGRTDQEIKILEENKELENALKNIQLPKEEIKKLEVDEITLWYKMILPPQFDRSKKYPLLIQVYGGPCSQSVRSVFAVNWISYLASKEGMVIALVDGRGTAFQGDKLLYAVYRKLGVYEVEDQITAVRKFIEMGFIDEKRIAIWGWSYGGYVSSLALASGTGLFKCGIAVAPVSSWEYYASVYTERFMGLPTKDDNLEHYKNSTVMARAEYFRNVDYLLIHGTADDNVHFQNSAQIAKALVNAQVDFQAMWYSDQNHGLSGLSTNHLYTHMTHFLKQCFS
Sequence of human Fibroblast activation protein alpha (hFAP) (Q12884 38-760): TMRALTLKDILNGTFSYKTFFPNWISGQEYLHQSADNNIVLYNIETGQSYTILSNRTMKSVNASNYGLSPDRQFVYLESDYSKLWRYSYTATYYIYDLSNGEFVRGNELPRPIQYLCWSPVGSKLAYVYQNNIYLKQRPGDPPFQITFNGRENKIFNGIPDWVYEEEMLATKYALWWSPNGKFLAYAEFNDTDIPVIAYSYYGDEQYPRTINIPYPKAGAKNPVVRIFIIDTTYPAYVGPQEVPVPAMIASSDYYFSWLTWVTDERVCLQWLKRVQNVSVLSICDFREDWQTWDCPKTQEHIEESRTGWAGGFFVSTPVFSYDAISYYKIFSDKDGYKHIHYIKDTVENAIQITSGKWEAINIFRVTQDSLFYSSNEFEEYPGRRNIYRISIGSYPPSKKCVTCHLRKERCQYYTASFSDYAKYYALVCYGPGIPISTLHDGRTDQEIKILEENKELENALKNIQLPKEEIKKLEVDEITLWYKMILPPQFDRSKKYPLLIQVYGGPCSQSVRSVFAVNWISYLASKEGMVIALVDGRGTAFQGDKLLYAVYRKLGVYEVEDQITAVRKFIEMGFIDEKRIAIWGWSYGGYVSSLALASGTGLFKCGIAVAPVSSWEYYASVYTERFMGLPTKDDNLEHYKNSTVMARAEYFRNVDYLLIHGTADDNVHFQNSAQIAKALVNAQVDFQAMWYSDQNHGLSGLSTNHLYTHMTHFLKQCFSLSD
Sequence of FAP (Q12884 38-760): as above
Sequence of Prolyl endopeptidase, Prolyl Oligopeptidase (hPREP) (P48147 whole entry): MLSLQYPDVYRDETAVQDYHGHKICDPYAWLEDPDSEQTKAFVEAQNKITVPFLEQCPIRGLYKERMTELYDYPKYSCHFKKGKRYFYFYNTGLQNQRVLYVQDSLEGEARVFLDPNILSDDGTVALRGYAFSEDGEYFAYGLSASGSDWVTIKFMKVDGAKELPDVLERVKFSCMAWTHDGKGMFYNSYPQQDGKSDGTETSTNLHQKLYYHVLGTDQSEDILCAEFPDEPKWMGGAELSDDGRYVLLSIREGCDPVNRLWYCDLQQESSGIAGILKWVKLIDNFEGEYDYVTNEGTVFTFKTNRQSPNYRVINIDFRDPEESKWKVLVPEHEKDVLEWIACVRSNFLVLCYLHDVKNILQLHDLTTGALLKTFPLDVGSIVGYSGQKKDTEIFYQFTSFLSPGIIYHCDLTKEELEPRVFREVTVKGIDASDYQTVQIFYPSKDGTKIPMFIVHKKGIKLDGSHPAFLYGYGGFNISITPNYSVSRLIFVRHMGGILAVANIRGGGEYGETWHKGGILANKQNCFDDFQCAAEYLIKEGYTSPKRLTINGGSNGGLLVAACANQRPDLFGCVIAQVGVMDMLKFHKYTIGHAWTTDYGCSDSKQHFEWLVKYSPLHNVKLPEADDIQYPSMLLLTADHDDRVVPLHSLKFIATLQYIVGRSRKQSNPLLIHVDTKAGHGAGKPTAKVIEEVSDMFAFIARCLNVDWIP

Row | Structure (SMILES) | IC50 [1] | IC50 [2] | hFAP Binding assay k(off) [3] | hFAP Binding assay k(on) [3] | Kd [3] | IC50 [4] | solubility [5, 8] | rHep CLint [6] | microsomal CLint [7, 9] | solubility [5] | microsomal CLint [7]
1 | N#C[C@@H]1CSCN1C(=O)CNC(=O)c1ccnc2ccc(N3CCC[C@H]3C(F)(F)F)cc12 [Example 56, N-(2-((R)-4-Cyanothiazolidin-3-yl)-2-oxoethyl)-6-((S)-2-(trifluoromethyl)-pyrrolidin-1-yl)quinoline-4-carboxamide] | 0.44 nM | 0.19 nM | 0.00011 s⁻¹ | 540000 M⁻¹ s⁻¹ | 0.14 nM | 220 nM | 5.9 µM (≈ 2.73 µg/mL) | 160 μL/min/1E6 | > 300 µL/min/mg | – | –
2 | CC1(C)CCCN1c1ccc2nccc(C(=O)NCC(=O)N3CSC[C@H]3C#N)c2c1 [Example 57, (R)—N-(2-(4-Cyanothiazolidin-3-yl)-2-oxoethyl)-6-(2,2-dimethylpyrrolidin-1-yl)quinoline-4-carboxamide] | 0.26 nM | 0.098 nM | 0.00018 s⁻¹ | 8000000 M⁻¹ s⁻¹ | 0.022 nM | 160 nM | 150 µM (≈ 63.5 µg/mL) | >300 μL/min/1E6 | > 300 µL/min/mg | – | –
3 | N#C[C@@H]1CSCN1C(=O)CNC(=O)c1ccnc2ccc(N3CC4(CC4)C[C@@H]3CF)cc12 [Example 58, N-(2-((R)-4-Cyanothiazolidin-3-yl)-2-oxoethyl)-6-((R)-6-(fluoromethyl)-5-azaspiro[2.4]heptan-5-yl)quinoline-4-carboxamide] | 0.23 nM | 0.076 nM | 0.091 s⁻¹ | 8800000000 M⁻¹ s⁻¹ | 0.016 nM | 180 nM | – | 72 μL/min/1E6 | – | 5.8 µM (≈ 2.63 µg/mL) | 140 µL/min/mg

Second part, led by results:

Row | IC50 [1] | IC50 [2] | hFAP Binding assay k(off) [3] | hFAP Binding assay k(on) [3] | Kd [3] | IC50 [4] | solubility [5, 8] | rHep CLint [6] | microsomal CLint [7, 9] | Structure (SMILES) | solubility [5] | microsomal CLint [7]
4 | 0.27 nM | 0.061 nM | 0.00019 s⁻¹ | 2600000 M⁻¹ s⁻¹ | 0.087 nM | 30 nM | 40 µM (≈ 17.7 µg/mL) | 91 μL/min/1E6 | > 300 µL/min/mg | N#C[C@@H]1CSCN1C(=O)CNC(=O)c1ccnc2ccc(N3CCCC[C@@H](F)C3)cc12 [Example 59, N-(2-((R)-4-Cyanothiazolidin-3-yl)-2-oxoethyl)-6-((R)-3-fluoroazepan-1-yl)quinoline-4-carboxamide] | – | –
5 | 0.22 nM | 0.14 nM | 0.00017 s⁻¹ | 1700000 M⁻¹ s⁻¹ | 0.099 nM | 86 nM | 160 µM (≈ 70.6 µg/mL) | 120 μL/min/1E6 | 210 µL/min/mg | N#C[C@@H]1CSCN1C(=O)CNC(=O)c1ccnc2ccc(N3CCCC[C@H](F)C3)cc12 [Example 60, N-(2-((R)-4-Cyanothiazolidin-3-yl)-2-oxoethyl)-6-((S)-3-fluoroazepan-1-yl)quinoline-4-carboxamide] | – | –
6 | 0.21 nM | 0.06 nM | – | – | 0.062 nM | 390 nM | 670 µM (≈ 294 µg/mL) | 26 μL/min/1E6 | 47 µL/min/mg | C[C@@H]1CCN(c2ccc3nccc(C(=O)NCC(=O)N4CSC[C@H]4C#N)c3c2)CCO1 [Example 61, N-(2-((R)-4-Cyanothiazolidin-3-yl)-2-oxoethyl)-6-((R)-7-methyl-1,4-oxazepan-4-yl)quinoline-4-carboxamide] | – | –
7 | 0.25 nM | 0.058 nM | 0.000085 s⁻¹ | 710000 M⁻¹ s⁻¹ | 0.12 nM | 280 nM | 640 µM (≈ 281 µg/mL) | 46 μL/min/1E6 | 31 µL/min/mg | C[C@H]1CCN(c2ccc3nccc(C(=O)NCC(=O)N4CSC[C@H]4C#N)c3c2)CCO1 [Example 62, N-(2-((R)-4-Cyanothiazolidin-3-yl)-2-oxoethyl)-6-((S)-7-methyl-1,4-oxazepan-4-yl)quinoline-4-carboxamide] | – | –
